For 14 compounds, IC50 results are on record in patent US20230106032A1, “IMIDAZOTRIAZINES ACTING ON CANCER VIA INHIBITION OF CDK12” (Bayer Aktiengesellschaft, priority 2020, published 2023).

For assay [1], the target named is T1, CDK12/CycK (Homo sapiens, UniProt Q9NYV4).
T1 construct: His-CDK12 (aa Q696-S1082); made in house; host or cells: Hi-5 insect cells (baculovirus co-infection with CAK1)
As to the kind of experiment: CDK12/CycK high ATP kinase assay (TR-FRET, 2 mM ATP). In kind it is biochemical. As to conditions: read-out: CDK12/CyclinK, 2 mM ATP (high ATP), IC50-[mol/l] (median). The source says:
In the context of the present invention, the term “IC50 CDK12 hATP” refers to the IC50 values obtained according to the assay described in this section (2.2) herein below, i.e. the IC50 values for the inhibition of CDK12 at high ATP.
CDK12/CycK-inhibitory activity of compounds of the present invention at 2 millimol/L adenosine-tri-phosphate (ATP) was quantified employing the TR-FRET (TR-FRET=Time Resolved Fluorescence Energy Transfer) based CDK12/CycK activity inhibition assay as described in the following paragraphs.
A complex of human recombinant CDK12 and human recombinant CycK (both N-terminally His-tagged, expression and purification as described above) was used as enzyme. As substrate for the kinase reaction biotinylated peptide biotin-Ahx-KFELLPTPPLSPSRRSGL (C-terminus in amid form) was used which can be purchased e.g. form the company Biosyntan (Berlin-Buch, Germany).
For the assay 50 nanoL of a 100 fold concentrated solution of the test compound in DMSO was pipetted into either a black low volume 384 well microtiter plate or a black 1536 well microtiter plate (both Greiner Bio-One, Frickenhausen, Germany), 2 microL of a solution of CDK12/CycK in aqueous assay buffer [25 millimol/L HEPES pH 7.5, 20 millimol/L MgCl2, 5 millimol/L ß-glycerophosphate, 2 millimol/L EGTA, 1.0 millimol/L dithiothreitol, 0.01% (v/v) Nonidet-P40 (Sigma), 0.01% (w/v) bovine serum albumin] were added and the mixture was incubated for 15 min at 22° C. to allow pre-binding of the test compounds to the enzyme before the start of the kinase reaction. Then the kinase reaction was started by the addition of 3 microL of a solution ATP (3.33 millimol/L=> final conc. in the 5 microL assay volume is 2 millimol/L) and substrate (1.67 micromol/L=> final conc. in the 5 microL assay volume is 1 micromol/L) in assay buffer and the resulting mixture was incubated for a reaction time of 60 min at 22° C. The concentration of CDK12/CycK was adjusted depending of the activity of the enzyme lot and was chosen appropriate to have the assay in the linear range, typical concentrations were about 0.75 nanomol/L. The reaction was stopped by the addition of 3 microL of a solution of TR-FRET detection reagents (125 nanomol/L streptavidine-XL665 [Cisbio Bioassays, Codolet, France] and 0.67 nanomol/L anti-Phospho-c-Myc (Ser 62) (E1J4K)-antibody from Cell Signalling [#13748] and 2 nanomol/L LANCE EU-W1024 labeled anti-rabbit IgG antibody [Perkin-Elmer, product no. 0083]) in an aqueous EDTA-solution (133 millimol/L EDTA, 0.27% (w/v) bovine serum albumin in 66.7 millimol/L HEPES pH 7.5).
(§1) The resulting mixture was incubated 1 h at 22° C. to allow the formation of complex between the phosphorylated biotinylated peptide and the detection reagents. Subsequently the amount of phosphorylated substrate was evaluated by measurement of the resonance energy transfer from the Eu-chelate to the streptavidine-XL. Therefore, the fluorescence emissions at 620 nm and 665 nm after excitation at 350 nm was measured in a TR-FRET reader, e.g. a Pherastar FS (BMG Labtechnologies, Offenburg, Germany) or a Viewlux (Perkin-Elmer). The ratio of the emissions at 665 nm and at […] was taken as the measure for the amount of phosphorylated substrate. The data were normalised (enzyme reaction without inhibitor=0% inhibition, all other assay components but no enzyme=100% inhibition).

Assay [2] has as its target T2, CDK2/CycE (Homo sapiens, UniProt P24941).
T2 construct: purchased ProQinase GmbH (Freiburg, Germany); host or cells: insect cells (Sf9)
Put plainly: CDK2/CycE kinase assay (TR-FRET, 2 mM ATP). In kind it is biochemical. As to conditions: read-out: CDK2/CyclinE, 2 mM ATP (high ATP) IC50-[mol/l] (median).
From the text: CDK2/CycE-inhibitory activity of compounds of the present invention was quantified employing the CDK2/CycE TR-FRET assay as described in the following paragraphs.
Recombinant fusion proteins of GST and human CDK2 and of GST and human CycE, expressed in insect cells (Sf9) and purified by Glutathion-Sepharose affinity chromatography, were purchase from ProQinase GmbH (Freiburg, Germany). As substrate for the kinase reaction biotinylated peptide biotin-Ttds-YISPLKSPYKISEG (C-terminus in amid form) was used which can be purchased e.g. form the company JERINI peptide technologies (Berlin, Germany).
For the assay 50 nanoL of a 100 fold concentrated solution of the test compound in DMSO was pipetted into a black low volume 384 well microtiter plate or a black 1536 well microtiter plate (both Greiner Bio-One, Frickenhausen, Germany), 2 microL of a solution of CDK2/CycE in aqueous assay buffer [50 millimol/L Tris/HCl pH 8.0, 10 millimol/L MgCl2, 1.0 millimol/L dithiothreitol, 0.1 millimol/L sodium ortho-vanadate, 0.01% (v/v) Nonidet-P40 (Sigma)] were added and the mixture was incubated for 15 min at 22° C. to allow pre-binding of the test compounds to the enzyme before the start of the kinase reaction. Then the kinase reaction was started by the addition of 3 microL of a solution of adenosine-tri-phosphate (ATP, 3.33 millimol/L=> final conc. in the 5 microL assay volume is 2 millimol/L) and substrate (1.25 micromol/L=> final conc. in the 5 microL assay volume is 0.75 micromol/L) in assay buffer and the resulting mixture was incubated for a reaction time of 25 min at 22° C. The concentration of CDK2/CycE was adjusted depending of the activity of the enzyme lot and was chosen appropriate to have the assay in the linear range, typical concentrations were in the range of 10 ng/ml. The reaction was stopped by the addition of 3 microL of a solution of TR-FRET detection reagents (0.333 micromol/L streptavidine-XL665 [Cisbio Bioassays, Codolet, France] and 1.67 nanomol/L anti-RB(pSer807/pSer8l 1)-antibody from BD Pharmingen [#558389] and 2 nanomol/L LANCE EU-W1024 labeled anti-mouse IgG antibody [Perkin-Elmer, product no. AD0077, as an alternative a Terbium-cryptate-labeled anti-mouse IgG antibody from Cisbio Bioassays can be used]) in an aqueous EDTA-solution (167 millimol/L EDTA, 0.2% (w/v) bovine serum albumin in 100 millimol/L HEPES pH 7.5).
as §1, with “Pherastar” for “Pherastar FS”

T1 sequence (Q9NYV4 with tags, fused parts or gaps): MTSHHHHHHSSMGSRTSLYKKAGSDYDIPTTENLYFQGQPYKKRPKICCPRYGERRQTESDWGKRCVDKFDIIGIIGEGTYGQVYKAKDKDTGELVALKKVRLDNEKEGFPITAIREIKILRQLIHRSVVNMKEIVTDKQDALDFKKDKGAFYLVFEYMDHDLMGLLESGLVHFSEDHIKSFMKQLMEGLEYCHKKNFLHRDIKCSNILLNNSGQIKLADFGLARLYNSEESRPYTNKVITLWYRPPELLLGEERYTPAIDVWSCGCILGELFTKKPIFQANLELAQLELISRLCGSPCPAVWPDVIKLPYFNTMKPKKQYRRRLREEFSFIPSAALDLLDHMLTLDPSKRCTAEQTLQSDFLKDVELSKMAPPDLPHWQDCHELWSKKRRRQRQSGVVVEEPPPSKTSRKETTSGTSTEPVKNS
T1 sequence (O75909 with tags, fused parts or gaps partner limits assumed): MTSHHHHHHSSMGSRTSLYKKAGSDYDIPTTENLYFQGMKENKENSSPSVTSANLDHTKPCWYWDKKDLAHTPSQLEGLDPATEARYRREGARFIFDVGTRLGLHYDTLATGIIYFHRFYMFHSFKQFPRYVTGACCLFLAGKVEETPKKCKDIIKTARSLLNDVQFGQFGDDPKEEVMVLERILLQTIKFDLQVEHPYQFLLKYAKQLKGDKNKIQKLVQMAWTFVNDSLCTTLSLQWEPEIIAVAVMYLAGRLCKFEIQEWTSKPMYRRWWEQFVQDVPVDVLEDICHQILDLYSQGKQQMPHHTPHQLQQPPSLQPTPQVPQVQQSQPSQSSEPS

Regarding `COc1cccc2[nH]c(CNc3nc(N4CCNCC4)nn4c(Br)cnc34)nc12` [Example 15, 7-bromo-N-[(4-methoxy-1H-benzimidazol-2-yl)methyl]-2-(piperazin-1-yl)imidazo[2,1-f][1,2,4]triazin-4-amine], the IC50 in assay [1] was 2.09 µM; in assay [2], 14.2 µM.
`COc1cccc2[nH]c(CNc3nc(N4CCN(C)CC4)nn4c(Br)cnc34)nc12.O=CO` [Example 16, 7-bromo-N-[(4-methoxy-1H-benzimidazol-2-yl)methyl]-2-(4-methylpiperazin-1-yl)imidazo[2,1-f][1,2,4]triazin-4-amine Formate (1/1)]: the IC50 was 6.29 µM in assay [1] and 12.6 µM in assay [2].
The matching figures for `OC[C@@H]1CCCCN1c1nc(NCc2nc3ccccc3[nH]2)c2ncc(Br)n2n1` [Example 17, [(2S)-1-(4-{[(1H-benzimidazol-2-yl)methyl]amino}-7-bromoimidazo[2,1-f][1,2,4]triazin-2-yl)piperidin-2-yl]methanol]: 0.116 µM and 1.41 µM.
With `C[C@@H]1CN(c2nc(NCc3nc4c(F)cccc4[nH]3)c3ncc(Br)n3n2)C[C@H](C)N1` [Example 18, 7-bromo-2-[rel-(3R,5S)-3,5-dimethylpiperazin-1-yl]-N-[(4-fluoro-1H-benzimidazol-2-yl)methyl]imidazo[2,1-f][1,2,4]triazin-4-amine], the IC50 in assay [1] was 1.8 µM; in assay [2], over 20 µM.
The matching figures for `C[C@@H]1CN(c2nc(NCc3nc4cc(F)ccc4[nH]3)c3ncc(Br)n3n2)C[C@H](C)N1` [Example 19, 7-bromo-2-[rel-(3R,5S)-3,5-dimethylpiperazin-1-yl]-N-[(5-fluoro-1H-benzimidazol-2-yl)methyl]imidazo[2,1-f][1,2,4]triazin-4-amine]: 6.43 µM and over 20 µM.
For the compound `Fc1ccc2[nH]c(CNc3nc(N4CCOCC4)nn4c(Br)cnc34)nc2c1` [Example 20, 7-bromo-N-[(5-fluoro-1H-benzimidazol-2-yl)methyl]-2-(morpholin-4-yl)imidazo[2,1-f][1,2,4]triazin-4-amine], the IC50 in assay [1] is 3.46 µM; in assay [2], 17.2 µM.
The matching figures for `CN1CCN(c2nc(NCc3nc4cc(F)ccc4[nH]3)c3ncc(Br)n3n2)CC1` [Example 21, 7-bromo-N-[(5-fluoro-1H-benzimidazol-2-yl)methyl]-2-(4-methylpiperazin-1-yl)imidazo[2,1-f][1,2,4]triazin-4-amine]: 16.5 µM and over 20 µM.
The matching figures for `CN1CCN(c2nc(NCc3nc4c(F)cccc4[nH]3)c3ncc(Br)n3n2)CC1` [Example 23, 7-bromo-N-[(4-fluoro-1H-benzimidazol-2-yl)methyl]-2-(4-methylpiperazin-1-yl)imidazo[2,1-f][1,2,4]triazin-4-amine]: 10.8 µM and over 20 µM.
The matching figures for `C[C@@H]1CN(c2nc(NCc3nc4ccccc4[nH]3)c3ncc(C(F)(F)F)n3n2)C[C@H](C)N1.O=CO` [Example 24, N-[(1H-benzimidazol-2-yl)methyl]-2-[rel-(3R,5S)-3,5-dimethylpiperazin-1-yl]-7-(trifluoromethyl)imidazo[2,1-f][1,2,4]triazin-4-amine Formate (1/1)]: 0.737 µM and over 20 µM.
Turning to `CN1CCN(c2nc(NCc3nc4ccccc4[nH]3)c3ncc(C(F)(F)F)n3n2)CC1` [Example 25, N-[(1H-benzimidazol-2-yl)methyl]-2-(4-methylpiperazin-1-yl)-7-(trifluoromethyl)imidazo[2,1-f][1,2,4]triazin-4-amine], the figures for the IC50 in assay [1] and in assay [2] were 10.8 µM and over 20 µM, respectively.
The matching figures for `FC(F)(F)c1cnc2c(NCc3nc4ccccc4[nH]3)nc(N3CCOCC3)nn12` [Example 26, N-[(1H-benzimidazol-2-yl)methyl]-2-(morpholin-4-yl)-7-(trifluoromethyl)imidazo[2,1-f][1,2,4]triazin-4-amine]: 0.172 µM and over 19.4 µM.
On to `Fc1ccc2[nH]c(CNc3nc(N4CCOCC4)nn4c(C(F)(F)F)cnc34)nc2c1F` [Example 27, N-[(4,5-difluoro-1H-benzimidazol-2-yl)methyl]-2-(morpholin-4-yl)-7-(trifluoromethyl)imidazo[2,1-f][1,2,4]triazin-4-amine], for which the IC50 is 0.0107 µM in assay [1] and over 20 µM in assay [2].
The matching figures for `CN1CCN(c2nc(NCc3nc4c(F)c(F)ccc4[nH]3)c3ncc(C(F)(F)F)n3n2)CC1` [Example 28, N-[(4,5-difluoro-1H-benzimidazol-2-yl)methyl]-2-(4-methylpiperazin-1-yl)-7-(trifluoromethyl)imidazo[2,1-f][1,2,4]triazin-4-amine]: 1.68 µM and over 20 µM.
Turning to `C[C@@H]1CN(c2nc(NCc3nc4c(F)c(F)ccc4[nH]3)c3ncc(C(F)(F)F)n3n2)C[C@H](C)N1` [Example 29, N-[(4,5-difluoro-1H-benzimidazol-2-yl)methyl]-2-[rel-(3R,5S)-3,5-dimethylpiperazin-1-yl]-7-(trifluoromethyl)imidazo[2,1-f][1,2,4]triazin-4-amine], the IC50 in assay [1] is 0.0405 µM; in assay [2], over 20 µM.
